Tests used:
[1] = molecular target: T1, human beta1-adrenoceptor (Homo sapiens, UniProt P08588); assay: 3H-CGP 12177 whole cell binding, beta1; conditions: 3H-CGP12177 whole-cell binding, CHO cells expressing human beta1-adrenoceptor, given as negative Log KD; for Kd: read-out: Beta 1 Log KD (converted)
T1 construct: expressed in transfected cells; host or cells: CHO cells
Experimental: (§1) Selectivity of ligands for the three beta-adrenoceptors was assessed by whole-cell binding studies using ^3H-CGP12177 in CHO cells expressing the human beta1, beta2 or beta3-adrenoceptors respectively essentially as described by Baker (2005; Br. J Pharmacol: 144, 317-22). Values shown are KD values determined as described by Baker (2005). KD represents the concentration of compound required to occupy 50% of the receptors in cells or tissues.
(§2) The selectivity of a ligand is given by the ratio of beta-1 to beta-2 KD. Accordingly a difference of one in the logarithmic values thereof represents a 10-fold selectivity, a difference of 2 represents 100-fold selectivity and a difference of 3 represents 1000-fold selectivity etc.

[2] = molecular target: T2, human beta2-adrenoceptor (Homo sapiens, UniProt P07550); assay: 3H-CGP 12177 whole cell binding, beta2; conditions: 3H-CGP12177 whole-cell binding, CHO cells expressing human beta2-adrenoceptor, given as negative Log KD; for Kd: read-out: Beta 2 Log KD (converted)
T2 construct: expressed in transfected cells; host or cells: CHO cells
Experimental: as §1, §2

T1 sequence (P08588 whole entry): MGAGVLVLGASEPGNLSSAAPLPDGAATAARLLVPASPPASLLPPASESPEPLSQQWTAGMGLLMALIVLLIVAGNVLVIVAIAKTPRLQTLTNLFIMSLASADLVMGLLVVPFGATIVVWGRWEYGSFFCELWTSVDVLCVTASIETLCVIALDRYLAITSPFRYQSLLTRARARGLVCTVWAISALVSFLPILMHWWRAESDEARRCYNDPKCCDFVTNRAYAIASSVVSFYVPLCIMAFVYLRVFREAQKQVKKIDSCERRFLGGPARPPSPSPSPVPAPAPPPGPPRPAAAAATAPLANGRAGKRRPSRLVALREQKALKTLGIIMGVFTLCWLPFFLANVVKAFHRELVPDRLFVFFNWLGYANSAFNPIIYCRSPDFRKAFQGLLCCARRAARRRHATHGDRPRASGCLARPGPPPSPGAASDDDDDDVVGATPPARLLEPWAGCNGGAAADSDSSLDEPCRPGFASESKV

melting point	Kd [1]	Kd [2]	Beta 1 Log KD [1]	Beta 2 Log KD [2]	Compound
151 °C	224 nM	3160 nM			COc1ccc2oc(C(O)CNCCNC(=O)Nc3ccc(O)cc3)cc2c1 (stereo not shown) [Example 63d]
	407 nM	3090 nM			O=C(NCCNCC(O)COc1ccc2c(c1)OC(c1ccccc1)CC2=O)Nc1cccc(Cl)c1 (stereo not shown) [Example 4a, 1-(3-chlorophenyl)-3-(2-(2-hydroxy-3-(4-oxo-2-phenylchroman-7-yloxy)propylamino)ethyl)urea]
	155 nM	44700 nM			O=C(NCCNCC(O)c1cc2cc(OCCOC3CCCC3)ccc2o1)Nc1ccc(O)cc1 (stereo not shown) [Example 63b, 1-(2-(2-(5-(2-(cyclopentyloxy)ethoxy)benzofuran-2-yl)-2-hydroxyethylamino)ethyl)-3-(4-hydroxyphenyl)urea]
			−6.84	−4.69	1-(2-(3-(3-(Ethoxymethyl)-2,3-dihydrobenzo[b][1,4]dioxin-6-yloxy)-2-hydroxypropylamino)ethyl)-3-(4-hydroxyphenyl)urea and 1-(2-(3-(2-(ethoxymethyl)-2,3-dihydrobenzo[b][1,4]dioxin-6-yloxyl-2-hydroxypropylamino)ethyl)-3-(4-hydroxyphenyl)urea [Example 76]
141 °C	3.98 nM	57.5 nM			O=C(NCCNCC(O)C1COc2ccccc2O1)Nc1cccc(Cl)c1 (stereo not shown) [Example 46a, 1-(3-chlorophenyl)-3-(2-(2-(2,3-dihydrobenzo[b][1,4]dioxin-2-yl)-2-hydroxyethylamino)ethyl)urea]
152.5 °C	46.8 nM	525 nM			Cc1ccc2cc(C(O)CNCCNC(=O)Nc3ccc(O)cc3)oc2c1 (stereo not shown) [Example 63c]
165 °C	617 nM	4470 nM			O=C(NCCNCC(O)COc1ccc2oc(-c3ccccc3)cc(=O)c2c1)Nc1cccc(Cl)c1 (stereo not shown) [Example 4b, 1-(3-chlorophenyl)-3-(2-(2-hydroxy-3-(4-oxo-2-phenyl-4H-chromen-6-yloxy)propylamino)ethyl)urea]
158 °C	389 nM	4470 nM			Cc1cc(=O)oc2ccc(OCC(O)CNCCNC(=O)Nc3cccc(Cl)c3)cc12 (stereo not shown) [Example 4d, 1-(3-chlorophenyl)-3-(2-(2-hydroxy-3-(4-methyl-2-oxo-2H-chromen-6-yloxy)propylamino)ethyl)urea]
	501 nM	6460 nM			NC(=O)c1cc2cc(OCC(O)CNCCNC(=O)Nc3cccc(Cl)c3)ccc2o1 (stereo not shown) [Example 24b, 5-(3-(2-(3-(3-chlorophenyl)ureido)ethylamino)-2-hydropropoxy)benzofuran-2-carboxamide]
			−6.78	−4.79	CCOCC1Cc2cc(OCC(O)CNCCNC(=O)Nc3ccc(O)cc3)ccc2O1 (stereo not shown) [Example 610b]
	537 nM	26900 nM			O=C(NCCNCC(O)C1Cc2cc(OCCOC3CCCC3)ccc2O1)Nc1ccc(O)cc1 (stereo not shown) [Example 63a, 1-(2-(2-(5-(2-(cyclopentyloxy)ethoxy)-2,3-dihydrobenzofuran-2-yl)-2-hydroxyethylamino)ethyl)-3-(4-hydroxyphenyl)urea]
141 °C	11 nM	97.7 nM			O=C(NCCNCC(O)C1COc2ccccc2O1)Nc1ccc(O)cc1 (mixture of isomers) [Example 46b, 1-(2-(2-(2,3-dihydrobenzo[b][1,4]dioxin-2-yl)-2-hydroxyethylamino)ethyl)-3-(4-hydroxyphenyl)urea]
			−6.50	−5.27	CCOC(=O)c1cc2cc(OCC(O)CNCCNC(=O)Nc3cccc(Cl)c3)ccc2o1 (stereo not shown) [Example 24a, Ethyl-5-(3-(2-(3-(3-Chlorophenyl)ureido)ethylamino)-2-hydropropoxy)benzofuran-2-carboxylate]
131.5 °C	257 nM	10200 nM			CCOCc1cc2cc(OCC(O)CNCCNC(=O)Nc3ccc(O)cc3)ccc2o1 (stereo not shown) [Example 610a, 1-(2-(3-(2-(Ethoxymethyl)benzofuran-5-yloxy)-2-hydroxypropylamino)ethyl)-3-(4-hydroxyphenyl)urea]
160 °C	355 nM	9330 nM			O=C(NCCNCC(O)COc1ccc2oc(=O)ccc2c1)Nc1cccc(Cl)c1 (stereo not shown) [Example 4c, 1-(3-chlorophenyl)-3-(2-(2-hydroxy-3-(2-oxo-2H-chromen-6-yloxy)propylamino)ethyl)urea]
			−6.55	−5.16	1-(2-(2-Hydroxy-3-(2-methylbenzofuran-5-yloxy)propylamino)ethyl)-3-(4-hydroxyphenyl)urea [Example 610c]

— patent US20150051270A1, “Novel Cyclic Phenoxy Compounds and Improved Treatments for Cardiac and Cardiovascular Disease” (University of Nottingham, priority 2012, published 2015)
